The source of these data is patent publication US10221426B2, “Constitutively active PYR/PYL receptor proteins for improving plant stress tolerance” (The Regents of the University of California, priority 2009, dated 2019).

One assay has as its target T1, PYL1-HAB1 (Arabidopsis thaliana, UniProt Q8VZS8).
T1 construct: BD-PYR/PYL fusion proteins were constructed in the same manner as for BD-PYR1 above; expressed in transfected cells; host or cells: yeast (Y190, as for BD-PYR1)
T1 sequence (Q8VZS8 1-221): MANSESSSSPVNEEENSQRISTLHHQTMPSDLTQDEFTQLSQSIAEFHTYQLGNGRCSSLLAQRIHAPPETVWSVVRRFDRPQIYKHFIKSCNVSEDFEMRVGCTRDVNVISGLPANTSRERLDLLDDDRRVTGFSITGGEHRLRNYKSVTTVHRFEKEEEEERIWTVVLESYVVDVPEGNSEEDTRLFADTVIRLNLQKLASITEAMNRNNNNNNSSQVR
T1 sequence (Q9CAJ0 23-511 partner): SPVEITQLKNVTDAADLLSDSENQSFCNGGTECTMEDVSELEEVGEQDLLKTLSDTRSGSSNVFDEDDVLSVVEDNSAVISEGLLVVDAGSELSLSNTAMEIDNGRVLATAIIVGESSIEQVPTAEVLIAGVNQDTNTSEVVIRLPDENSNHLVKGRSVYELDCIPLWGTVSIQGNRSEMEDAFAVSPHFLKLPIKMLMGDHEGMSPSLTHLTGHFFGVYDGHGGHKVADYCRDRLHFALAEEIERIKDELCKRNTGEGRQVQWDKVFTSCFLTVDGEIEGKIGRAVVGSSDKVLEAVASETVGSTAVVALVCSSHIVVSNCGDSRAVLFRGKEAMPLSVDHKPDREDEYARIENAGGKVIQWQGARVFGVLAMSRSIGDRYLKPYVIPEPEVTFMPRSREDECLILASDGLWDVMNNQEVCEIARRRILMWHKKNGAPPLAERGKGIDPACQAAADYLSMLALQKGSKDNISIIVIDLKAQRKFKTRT
Description: Yeast two-hybrid BD-PYL1 / AD-HAB1 interaction, X-gal stain. Type of assay: cell-based. Particulars: 10 μM. As to the method: Given that PYR1 is necessary for pyrabactin action and is a predicted ligand-binding protein, we hypothesized that pyrabactin agonizes ABA signaling by inducing a protein-protein interaction between PYR1 and a downstream effector. To test this, ˜2 million prey cDNA clones were screened against a PYR1 Y2H bait construct on media containing 10 μM pyrabactin. To create the PYR1 Y2H bait construct, the Pyr1 open reading frame was PCR amplified from genomic DNA and cloned to pGem-T easy vector (Promega). After sequence confirmation, the Pyr1 ORF was then cloned in-frame between EcoRI and SalI sites of the pBD-GAL4 Cam vector (Stratagene) and transformed into yeast strain Y190. For the screen, an etiolated seedling cDNA library (J. Kim, K., Harter, A., Theologis, Proc Natl Acad Sci USA 94, 11786 (Oct. 28, 1997)) (ABRC stock CD4-22) was used. The cDNA library was first converted from phage to plasmid DNA, yielding 7.6×10^7 transformants. Plasmid DNA prepared from library was then used to transform Y190 as described in the GAL4 Two-Hybrid system manual (Stratagene). […] This identified two pyrabactin-dependent hits which sequencing determined encoded cDNAs for the PP2C HAB1, a close relative of the well-characterized ABA response factor ABI1 (A. Saez et al., The Plant Journal 37, 354 (2004); N. Leonhardt et al., THE PLANT CELL 16, 596 (2004)). […]

A further assay concerns the target T2, PYL4-HAB1 (Arabidopsis thaliana, UniProt O80920).
T2 construct: BD-PYR/PYL fusion proteins were constructed in the same manner as for BD-PYR1 above; expressed in transfected cells; host or cells: yeast (Y190, as for BD-PYR1)
T2 sequence (O80920 1-207): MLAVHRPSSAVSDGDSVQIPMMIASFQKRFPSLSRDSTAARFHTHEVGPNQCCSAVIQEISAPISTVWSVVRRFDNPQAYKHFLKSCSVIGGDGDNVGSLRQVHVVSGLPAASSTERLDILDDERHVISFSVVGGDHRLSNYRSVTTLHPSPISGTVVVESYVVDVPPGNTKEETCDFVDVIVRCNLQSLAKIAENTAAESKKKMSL
T2 sequence (Q9CAJ0 23-511 partner): T1 sequence (Q9CAJ0 23-511 partner)
The assay can be described thus: Yeast two-hybrid BD-PYL4 / AD-HAB1 interaction. Particulars: 10 μM. The assay is classed as cell-based. As to the method:
Given that PYR1 is necessary for pyrabactin action and is a predicted ligand-binding protein, we hypothesized that pyrabactin agonizes ABA signaling by inducing a protein-protein interaction between PYR1 and a downstream effector. To test this, ˜2 million prey cDNA clones were screened against a PYR1 Y2H bait construct on media containing 10 μM pyrabactin. To create the PYR1 Y2H bait construct, the Pyr1 open reading frame was PCR amplified from genomic DNA and cloned to pGem-T easy vector (Promega). After sequence confirmation, the Pyr1 ORF was then cloned in-frame between EcoRI and SalI sites of the pBD-GAL4 Cam vector (Stratagene) and transformed into yeast strain Y190. For the screen, an etiolated seedling cDNA library (J. Kim, K., Harter, A., Theologis, Proc Natl Acad Sci USA 94, 11786 (Oct. 28, 1997)) (ABRC stock CD4-22) was used. The cDNA library was first converted from phage to plasmid DNA, yielding 7.6×10^7 transformants. Plasmid DNA prepared from library was then used to transform Y190 as described in the GAL4 Two-Hybrid system manual (Stratagene). For each screen, 40 μg of prey plasmid was transformed into 1 ml of competent Y190 cell harboring bait construct and then grown on SD agar plates lacking His, Leu, and Trp, but containing 15 mM 3-AT and 10 μM pyrabactin. After 4 days incubation at 30° C., well-grown colonies were rescued and interactions validated using filter lift assay or chloroform-agarose overlay method and X-Gal staining. This identified two pyrabactin-dependent hits which sequencing determined encoded cDNAs for the PP2C HAB1, a close relative of the well-characterized ABA response factor ABI1 (A. Saez et al., The Plant Journal 37, 354 (2004); N. Leonhardt et al., THE PLANT CELL 16, 596 (2004)). Next, Y2H strains expressing an AD-HAB1 fusion protein and a BD-PYR1 fusion protein were grown on plates and tested for interactions in response to various compounds, all at 10 μM except for epi-brassinolide (50 nM) and dimethyl sulfoxide (DMSO) (carrier solvent, 1%). […] Thus, PYR1 interacts with HAB1 in a (+)-ABA dependent fashion.
To see if ABA and pyrabactin responsiveness is unique to PYR1, we tested 11 of the 13 PYL proteins as described above, using Y2H strains expressing an AD-HAB1 fusion protein and a BD-PYR/PYL fusion protein (listed at the left of FIG. 3A). BD-PYR/PYL fusion proteins were constructed in the same manner as for BD-PYR1 above. […] Of these, only Pyr1 is highly transcribed in seeds, which likely explains why mutations in Pyr1 cause the seeds to be insensitive to pyrabactin. […] However the interactions of PYLs 5-12 with the PP2Cs are indicative that the entire protein family is likely to share a similar mechanism of action involving PP2C modulation, as we describe below. […]

`O=S(=O)(NCc1ccccn1)c1ccc(Br)c2ccccc12` [pyrabactin]: the “PYL1-HAB1 interaction by X-gal stain” value at PYL1-HAB1 is given as “promotes interactions”. Turning to `CC1=CC(=O)CC(C)(C)[C@@]1(O)/C=C/C(C)=C\C(=O)O` [ABA, Abscisic acid], the “PYL1-HAB1 interaction by X-gal stain” value at PYL1-HAB1 was “interact with HAB1 in an ABA-stimulated manner”. In addition, at PYL4-HAB1, the “PYL4-HAB1 interaction by X-gal stain” value is reported as “interact with HAB1 in an ABA-stimulated manner”. For `CC1=CC(=O)CC(C)(C)C1(O)/C=C/C(C)=C\C(=O)O` (single isomer, unassigned; (+)) [(+)-ABA], at PYL4-HAB1, the “PYL4-HAB1 interaction by X-gal stain” value is “respond”.
